According to BigSolDB 2.1:

CC1Cc2ccccc2N1NC(=O)c1ccc(Cl)c(S(N)(=O)=O)c1 (stereo not given)
solubility (mole fraction)
Settings | in 2-butanone | in acetone | in acetonitrile | in cyclohexane | in ethanol | in ethyl acetate | in isopropanol | in methanol | in n-propanol | in toluene
278.15 K | 0.0155 | 0.0204 | 0.00184 | 1.28e-06 | 0.00383 | 0.000455 | 0.0012 | 0.00524 | 0.00285 | 4.36e-06
283.15 K | 0.0175 | 0.0228 | 0.00278 | 2.34e-06 | 0.00514 | 0.000769 | 0.00187 | 0.00676 | 0.00398 | 6.4e-06
288.15 K | 0.0198 | 0.0257 | 0.00391 | 3.75e-06 | 0.00709 | 0.00115 | 0.00279 | 0.00877 | 0.00531 | 1.08e-05
293.15 K | 0.0225 | 0.0288 | 0.00536 | 5.88e-06 | 0.00913 | 0.00165 | 0.00386 | 0.0115 | 0.00685 | 1.68e-05
298.15 K | 0.0255 | 0.0322 | 0.00714 | 9.3e-06 | 0.0116 | 0.00235 | 0.00535 | 0.0147 | 0.00884 | 2.54e-05
303.15 K | 0.0291 | 0.036 | 0.00953 | 1.45e-05 | 0.0148 | 0.00336 | 0.00732 | 0.0187 | 0.0114 | 3.62e-05
308.15 K | 0.0329 | 0.0402 | 0.0124 | 2.23e-05 | 0.0186 | 0.00464 | 0.00979 | 0.023 | 0.0143 | 5.21e-05
313.15 K | 0.0371 | 0.0445 | 0.0158 | 3.36e-05 | 0.0227 | 0.00638 | 0.013 | 0.0276 | 0.0177 | 7.52e-05
318.15 K | 0.0417 | 0.0495 | 0.0199 | 5.02e-05 | 0.0275 | 0.00855 | 0.0168 | 0.033 | 0.0219 | 0.000106
